Among the test systems are A498 renal; CCRF-CEM leukemia; HOP-62 NSCLC; HOP-92 NSCLC; K-562 leukemia; LOX IMVI melanoma; MDA-MB-231 breast; NCI-H226 lung; NCI-H522 lung; OVCAR-5 ovarian.
Holding throughout (assay): NCI-60 cell line screen, 48 h

SMILES strings stand for the structures.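 Where inhibition never reached the appropriate level, the endpoint shown equals the highest concentration tested. Otherwise, values were interpolated linearly from a five-concentration, 48-hour dose response in 96-well plates. GI50 = concentration required for 50% inhibition of growth. Definition used: TGI = concentration required for complete inhibition of growth.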

As for `O=C(CNc1ccc(Cl)cc1)Nc1ccc(-c2nc3ccccc3s2)cc1`, the GI50 in the assay with A498 renal is 12.5 µM; with CCRF-CEM leukemia, 0.859 µM; with HOP-62 NSCLC, 8.62 µM; in the assay with HOP-92 NSCLC it was 1.91 µM; with K-562 leukemia, 1.95 µM; in the assay with LOX IMVI melanoma it was 1.44 µM. Further, the GI50 with MDA-MB-231 breast was 3.67 µM; in the assay with NCI-H226 lung, 2.94 µM; in the assay on NCI-H522 lung, 1.53 µM; with OVCAR-5 ovarian, 5.97 µM. For the same molecule, the TGI with A498 renal was 25 µM; in the assay with CCRF-CEM leukemia it was more than 100 µM; with HOP-62 NSCLC, 23.8 µM; with HOP-92 NSCLC, 5.17 µM; in the assay on K-562 leukemia it was more than 100 µM; with LOX IMVI melanoma it was 2.95 µM. The TGI came out at 14.7 µM in the assay on MDA-MB-231 breast, 11 µM in the assay on NCI-H226 lung, 3.67 µM in the assay on NCI-H522 lung and 13.3 µM with OVCAR-5 ovarian.
Take `COc1ccc2c(c1)CCCC(Br)C2=O` (stereo not given): the TGI stood at 36.4 µM in the assay with A498 renal; 1.48 µM in the assay on CCRF-CEM leukemia; 33.4 µM with HOP-62 NSCLC; 23.3 µM with HOP-92 NSCLC; 18.7 µM in the assay on K-562 leukemia; 3.04 µM in the assay on LOX IMVI melanoma. Besides, the TGI came to 10.9 µM in the assay on MDA-MB-231 breast, 5.92 µM in the assay on NCI-H226 lung, 0.837 µM in the assay on NCI-H522 lung and 20.8 µM in the assay on OVCAR-5 ovarian.
On to `CCOC(=O)CCCn1c(SC)nc2[nH]cc(-c3ccccc3)c2c1=O`, for which the GI50 with A498 renal is 16.5 µM; with CCRF-CEM leukemia, 3.01 µM; with HOP-62 NSCLC, 11 µM; in the assay with HOP-92 NSCLC, 7.62 µM; with K-562 leukemia, 12.7 µM; in the assay on LOX IMVI melanoma, 11.3 µM. Also, the GI50 in the assay with MDA-MB-231 breast was 25.8 µM; in the assay on NCI-H226 lung, 14.1 µM; in the assay on NCI-H522 lung, 15 µM; in the assay with OVCAR-5 ovarian, 37.5 µM. Besides, the TGI in the assay on A498 renal came to 63.3 µM; in the assay on CCRF-CEM leukemia, 54.5 µM; in the assay on HOP-62 NSCLC it was 40.4 µM; in the assay on HOP-92 NSCLC it was 41.1 µM; in the assay with K-562 leukemia it was 56.9 µM; with LOX IMVI melanoma it was 25.8 µM. For the same molecule, the TGI in the assay on MDA-MB-231 breast came out at 66.7 µM; with NCI-H226 lung, 45.1 µM; in the assay with NCI-H522 lung, 37.8 µM; in the assay on OVCAR-5 ovarian it was 97.1 µM.
As to `CC(C)CCN1c2nc(Nc3cc(F)c(O)c(F)c3)ncc2N(C)C(=O)C1C` (stereo not given), the GI50 was 18.3 µM in the assay with A498 renal; 1.52 µM with CCRF-CEM leukemia; 6.66 µM in the assay with HOP-62 NSCLC; 0.591 µM in the assay on HOP-92 NSCLC; 2.63 µM with K-562 leukemia; 4.11 µM with LOX IMVI melanoma. For the same molecule, the GI50 in the assay on MDA-MB-231 breast is 5.17 µM; with NCI-H226 lung it was 17.4 µM; in the assay with NCI-H522 lung, 2.52 µM; in the assay on OVCAR-5 ovarian, 19.1 µM. Besides, the TGI is 54.6 µM in the assay on A498 renal; 23.6 µM in the assay on CCRF-CEM leukemia; more than 100 µM in the assay with HOP-62 NSCLC; 14.9 µM in the assay with HOP-92 NSCLC; more than 33.3 µM in the assay with K-562 leukemia; 20.8 µM with LOX IMVI melanoma. Moreover, the TGI in the assay with MDA-MB-231 breast is more than 100 µM; in the assay on NCI-H226 lung, 41.2 µM; in the assay on NCI-H522 lung, 22.4 µM; in the assay on OVCAR-5 ovarian it was more than 100 µM.

The values above are taken from PubChem BioAssay (NCI).
